The results in this text go back to ChEMBL document CHEMBL1811776, “Discovery of benzimidazole derivatives as novel multi-target EGFR, VEGFR-2 and PDGFR kinase inhibitors” (Bioorg Med Chem, 2011).

Assay [1] concerns HepG2. Briefly: cells. Particulars: Homo sapiens, HepG2, 72 h.
Description: Cytotoxicity against human HepG2 cells after 72 hrs by MTT assay
Assay [2] concerns the target Vascular endothelial growth factor receptor 2 (Homo sapiens) (UniProt P35968). Briefly: Inhibition of VEGFR-2 at 20 uM after 1 hrs by luminescence assay.
The target of assay [3] is Platelet-derived growth factor receptor alpha (Homo sapiens) (UniProt P16234). In words: Inhibition of PDGFR-alpha at 20 uM after 1 hrs by luminescence assay.
Platelet-derived growth factor receptor alpha (Homo sapiens), sequence (P16234 whole entry): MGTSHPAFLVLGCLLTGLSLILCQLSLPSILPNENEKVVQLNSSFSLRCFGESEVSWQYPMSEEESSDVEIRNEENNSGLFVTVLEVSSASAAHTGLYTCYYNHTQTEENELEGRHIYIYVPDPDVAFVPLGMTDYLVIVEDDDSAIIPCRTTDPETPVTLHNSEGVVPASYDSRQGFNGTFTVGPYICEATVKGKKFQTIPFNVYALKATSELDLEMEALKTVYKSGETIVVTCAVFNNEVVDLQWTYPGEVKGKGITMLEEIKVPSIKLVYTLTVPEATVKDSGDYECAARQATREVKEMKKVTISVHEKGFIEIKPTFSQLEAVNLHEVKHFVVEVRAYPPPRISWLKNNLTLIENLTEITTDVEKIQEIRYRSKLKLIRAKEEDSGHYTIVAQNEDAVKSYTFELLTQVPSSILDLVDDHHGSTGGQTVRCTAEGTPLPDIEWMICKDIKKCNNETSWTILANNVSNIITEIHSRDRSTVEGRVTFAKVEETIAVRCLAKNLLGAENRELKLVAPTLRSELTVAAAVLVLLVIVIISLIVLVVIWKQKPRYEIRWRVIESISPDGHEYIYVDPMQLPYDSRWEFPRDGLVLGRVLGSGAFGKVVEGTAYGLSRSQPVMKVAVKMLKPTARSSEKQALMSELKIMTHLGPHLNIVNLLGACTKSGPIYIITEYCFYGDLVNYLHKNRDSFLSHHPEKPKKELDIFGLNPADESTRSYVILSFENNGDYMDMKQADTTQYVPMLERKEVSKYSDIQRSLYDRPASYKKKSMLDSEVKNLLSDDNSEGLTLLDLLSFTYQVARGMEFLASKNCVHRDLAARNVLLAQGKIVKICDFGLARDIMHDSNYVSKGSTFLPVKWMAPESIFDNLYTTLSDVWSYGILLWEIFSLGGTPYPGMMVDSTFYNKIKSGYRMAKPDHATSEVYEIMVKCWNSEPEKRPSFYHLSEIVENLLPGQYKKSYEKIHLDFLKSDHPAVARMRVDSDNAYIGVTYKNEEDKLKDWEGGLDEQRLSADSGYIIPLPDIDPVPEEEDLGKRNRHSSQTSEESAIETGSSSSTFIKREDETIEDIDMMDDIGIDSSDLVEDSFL
Assay [4] addresses Platelet-derived growth factor receptor beta (Homo sapiens) (UniProt P09619). In words: Inhibition of PDGFR-beta at 20 uM after 1 hrs by luminescence assay.
For assay [5], the target named is Platelet-derived growth factor receptor alpha (Homo sapiens) (UniProt P16234). In words: Inhibition of PDGFR-alpha at 50 uM after 1 hrs by luminescence assay.
In assay [6] the target is Platelet-derived growth factor receptor beta (Homo sapiens) (UniProt P09619). Briefly: Inhibition of PDGFR-beta at 50 uM after 1 hrs by luminescence assay.
Platelet-derived growth factor receptor beta (Homo sapiens), sequence (P09619 whole entry): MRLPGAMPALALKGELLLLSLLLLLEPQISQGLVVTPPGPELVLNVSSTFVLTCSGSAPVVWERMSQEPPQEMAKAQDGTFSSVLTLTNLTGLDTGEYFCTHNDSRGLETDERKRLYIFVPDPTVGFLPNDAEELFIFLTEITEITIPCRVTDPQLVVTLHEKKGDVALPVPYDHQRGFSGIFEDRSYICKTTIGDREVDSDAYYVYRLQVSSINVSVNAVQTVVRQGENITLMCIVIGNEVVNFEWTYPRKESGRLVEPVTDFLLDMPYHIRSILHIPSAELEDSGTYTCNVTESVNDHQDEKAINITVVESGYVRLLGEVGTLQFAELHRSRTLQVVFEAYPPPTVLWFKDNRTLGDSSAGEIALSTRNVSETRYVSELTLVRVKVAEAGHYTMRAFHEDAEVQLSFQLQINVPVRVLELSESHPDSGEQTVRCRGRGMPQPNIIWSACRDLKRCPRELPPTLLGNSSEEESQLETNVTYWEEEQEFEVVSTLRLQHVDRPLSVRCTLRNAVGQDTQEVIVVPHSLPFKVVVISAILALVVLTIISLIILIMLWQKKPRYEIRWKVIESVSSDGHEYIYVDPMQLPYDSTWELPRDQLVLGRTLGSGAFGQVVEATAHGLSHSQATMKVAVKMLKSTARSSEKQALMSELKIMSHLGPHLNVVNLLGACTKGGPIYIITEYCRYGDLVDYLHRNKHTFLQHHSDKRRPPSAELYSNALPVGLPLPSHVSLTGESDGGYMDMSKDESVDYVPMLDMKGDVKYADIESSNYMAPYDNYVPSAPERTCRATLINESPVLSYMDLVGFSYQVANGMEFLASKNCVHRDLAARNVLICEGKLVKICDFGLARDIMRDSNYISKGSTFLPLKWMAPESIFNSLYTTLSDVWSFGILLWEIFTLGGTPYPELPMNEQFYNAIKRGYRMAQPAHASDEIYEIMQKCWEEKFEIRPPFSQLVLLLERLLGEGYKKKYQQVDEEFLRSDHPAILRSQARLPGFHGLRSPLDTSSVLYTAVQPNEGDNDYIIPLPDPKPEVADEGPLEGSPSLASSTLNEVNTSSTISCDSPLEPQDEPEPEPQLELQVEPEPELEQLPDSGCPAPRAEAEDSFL
Assay [7] has as its target Epidermal growth factor receptor (Homo sapiens, UniProt P00533). In words: Inhibition of EGFR after 1 hrs by luminescence assay.
Assay [8] addresses Vascular endothelial growth factor receptor 1 (Homo sapiens) (UniProt P17948). In words: Inhibition of VEGFR-1 at 50 uM after 1 hrs by luminescence assay.
The test system of assay [9] is HepG2. In words: Induction of apoptosis in human HepG2 cells assessed as late apoptotic or dead cells at 2 uM after 72 hrs using annexin V-propidium iodide staining based flow cytometric analysis. Format: functional.
Assay [10] deals with Vascular endothelial growth factor receptor 2 (Homo sapiens) (UniProt P35968). Briefly: Inhibition of VEGFR-2 at 50 uM after 1 hrs by luminescence assay.
Vascular endothelial growth factor receptor 2 (Homo sapiens), sequence (P35968 whole entry, canonical isoform): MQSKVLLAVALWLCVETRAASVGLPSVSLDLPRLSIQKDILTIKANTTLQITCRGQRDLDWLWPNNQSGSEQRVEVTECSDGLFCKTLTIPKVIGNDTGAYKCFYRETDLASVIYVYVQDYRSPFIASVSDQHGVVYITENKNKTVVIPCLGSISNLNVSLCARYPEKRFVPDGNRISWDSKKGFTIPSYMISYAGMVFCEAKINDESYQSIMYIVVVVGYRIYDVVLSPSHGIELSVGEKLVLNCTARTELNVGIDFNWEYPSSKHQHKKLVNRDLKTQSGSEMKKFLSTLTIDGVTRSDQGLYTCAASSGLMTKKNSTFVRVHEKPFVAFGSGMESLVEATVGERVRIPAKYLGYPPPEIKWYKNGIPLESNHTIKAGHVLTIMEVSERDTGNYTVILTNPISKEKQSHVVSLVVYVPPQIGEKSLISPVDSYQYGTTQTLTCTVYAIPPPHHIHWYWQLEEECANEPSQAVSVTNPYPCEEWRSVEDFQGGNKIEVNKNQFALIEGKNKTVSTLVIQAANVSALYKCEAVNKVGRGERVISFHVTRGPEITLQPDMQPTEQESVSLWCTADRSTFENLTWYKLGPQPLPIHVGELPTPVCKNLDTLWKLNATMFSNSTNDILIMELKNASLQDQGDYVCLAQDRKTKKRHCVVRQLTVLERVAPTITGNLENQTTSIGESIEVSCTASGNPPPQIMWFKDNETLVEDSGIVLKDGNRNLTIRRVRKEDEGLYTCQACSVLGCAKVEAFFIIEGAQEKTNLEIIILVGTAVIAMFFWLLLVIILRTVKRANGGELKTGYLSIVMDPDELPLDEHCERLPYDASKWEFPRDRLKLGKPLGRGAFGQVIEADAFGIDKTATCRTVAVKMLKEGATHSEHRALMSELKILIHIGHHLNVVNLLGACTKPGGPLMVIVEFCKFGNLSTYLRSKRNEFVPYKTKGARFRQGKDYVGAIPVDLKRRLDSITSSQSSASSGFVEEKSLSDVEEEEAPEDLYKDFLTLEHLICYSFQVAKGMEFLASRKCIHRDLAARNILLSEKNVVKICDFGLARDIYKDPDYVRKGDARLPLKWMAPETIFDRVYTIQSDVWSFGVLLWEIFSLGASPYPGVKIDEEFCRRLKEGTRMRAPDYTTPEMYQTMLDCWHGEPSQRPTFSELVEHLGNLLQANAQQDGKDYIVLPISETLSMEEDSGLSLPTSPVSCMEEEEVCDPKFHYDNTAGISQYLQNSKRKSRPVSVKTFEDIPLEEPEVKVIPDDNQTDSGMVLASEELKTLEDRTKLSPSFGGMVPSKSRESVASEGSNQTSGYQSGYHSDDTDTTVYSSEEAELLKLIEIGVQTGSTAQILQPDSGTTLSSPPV
In assay [11] the target is Phosphatidylinositol 4,5-bisphosphate 3-kinase catalytic subunit alpha isoform (Homo sapiens) (UniProt P42336). In words: Inhibition of PI3K-alpha at 50 uM after 1 hrs by luminescence assay.
Phosphatidylinositol 4,5-bisphosphate 3-kinase catalytic subunit alpha isoform (Homo sapiens), sequence (P42336 whole entry, canonical isoform): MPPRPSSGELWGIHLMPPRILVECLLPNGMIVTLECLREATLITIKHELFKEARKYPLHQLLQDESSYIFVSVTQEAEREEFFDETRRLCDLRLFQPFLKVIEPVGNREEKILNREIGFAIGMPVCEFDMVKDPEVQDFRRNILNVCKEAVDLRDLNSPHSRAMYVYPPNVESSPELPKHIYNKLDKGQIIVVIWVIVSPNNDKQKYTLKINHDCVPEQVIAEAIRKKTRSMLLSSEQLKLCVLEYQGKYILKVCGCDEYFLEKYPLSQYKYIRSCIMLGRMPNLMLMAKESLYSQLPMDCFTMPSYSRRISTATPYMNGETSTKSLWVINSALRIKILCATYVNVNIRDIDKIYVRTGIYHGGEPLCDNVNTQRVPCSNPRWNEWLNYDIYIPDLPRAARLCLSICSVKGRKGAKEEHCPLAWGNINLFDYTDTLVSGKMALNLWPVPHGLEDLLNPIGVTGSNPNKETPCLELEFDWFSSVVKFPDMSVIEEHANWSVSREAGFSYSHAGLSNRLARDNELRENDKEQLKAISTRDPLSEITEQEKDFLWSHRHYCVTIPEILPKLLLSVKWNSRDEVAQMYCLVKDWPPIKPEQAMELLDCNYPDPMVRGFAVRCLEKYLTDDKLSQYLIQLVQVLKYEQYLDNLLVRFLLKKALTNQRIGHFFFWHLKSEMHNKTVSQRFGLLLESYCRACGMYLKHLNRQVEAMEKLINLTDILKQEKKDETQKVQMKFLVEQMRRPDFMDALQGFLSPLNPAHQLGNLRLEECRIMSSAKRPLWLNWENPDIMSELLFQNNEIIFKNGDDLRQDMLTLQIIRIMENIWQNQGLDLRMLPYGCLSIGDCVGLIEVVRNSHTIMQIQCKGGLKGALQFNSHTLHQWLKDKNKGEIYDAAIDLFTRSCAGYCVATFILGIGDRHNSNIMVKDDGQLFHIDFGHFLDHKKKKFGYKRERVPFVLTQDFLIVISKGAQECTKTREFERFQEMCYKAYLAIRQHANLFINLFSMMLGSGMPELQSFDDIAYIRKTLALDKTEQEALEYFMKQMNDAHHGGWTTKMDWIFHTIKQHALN
Assay [12] concerns HepG2. Briefly: Induction of apoptosis in human HepG2 cells assessed as early apoptotic cells at 2 uM after 72 hrs using annexin V-propidium iodide staining based flow cytometric analysis. Type of assay: functional.

Active and inactive are the calls of the source. The calls are words filed in the database; no cut-off is given here. Where only a bound is given, the exact number is not on record here.

The compound `CCN1CCN(CCC(=O)Nc2ccc3[nH]c(-c4ccc(Br)cc4)nc3c2)CC1` had an IC50 in assay [1] of 27.4 µM.

In the case of `Cc1ccc(-c2nc3cc(NC(=O)CN4CCCC4)ccc3[nH]2)cc1`, the IC50 in assay [1] is more than 50 µM.

For the compound `O=C(Nc1ccc2[nH]c(-c3ccc(F)cc3)nc2c1)c1cnccn1`, the figures for the inhibition in assay [2], in [3] and in assay [4] were 0.58%, 2.55% and 0.27%, respectively.

Regarding `Cc1ccc(-c2nc3cc(NC(=O)CN4CCCCC4)ccc3[nH]2)cc1`, the half-maximal inhibitory concentration (IC50) in assay [1] was more than 50 µM.

Regarding `Cn1cccc1-c1nc2cc(NC(=O)CCl)ccc2[nH]1`, the IC50 in [1] stood at 1.8 µM; in [7] it was 12.1 µM. Besides, the inhibition in [5] amounted to 18.7%; in assay [6], 17.8%; in assay [10], 16.5%; in assay [11] it was 3.7%. Further, the inhibition entry in assay [8] is “inactive”. In addition, the Activity in assay [9] was found to be 18.7%; in assay [12] it was 22.8%.

With `O=C(CCCl)Nc1ccc2[nH]c(-c3ccc(Br)cc3)nc2c1`, the concentration for half-maximal inhibition (IC50) in assay [1] was found to be 11.3 µM.

For `Cc1ccc(-c2nc3cc(NC(=O)CCN4CCN(C)CC4)ccc3[nH]2)cc1`, the half-inhibitory concentration (IC50) in assay [1] was more than 50 µM.

In [1], `Cc1ccc(-c2nc3cc(NC(=O)CCCl)ccc3[nH]2)cc1` showed an IC50 of more than 50 µM. Further, the values for the inhibition in assay [5], in [6] and in [8] were 17%, 24.6% and 3.3%, respectively. Moreover, the inhibition entry in assay [10] and in [11] was “inactive” throughout.

Turning to `CN[C@@H]1C[C@H]2O[C@@](C)([C@@H]1OC)n1c3ccccc3c3c4c(c5c6ccccc6n2c5c31)C(=O)NC4`, the inhibition in [5] was determined as 92.6%; in assay [3], 97.5%; in assay [8] it was 93.4%; in assay [11], 97%.

For the compound `CCN1CCN(CC(=O)Nc2ccc3[nH]c(-c4ccc(C)cc4)nc3c2)CC1`, in [1], the half-inhibitory concentration (IC50) was 31.9 µM.

For the compound `Cn1cccc1-c1nc2cc(NC(=O)CCCl)ccc2[nH]1`, in assay [1], the 50% inhibitory concentration (IC50) was more than 50 µM.

For `Cc1ccc(-c2nc3cc(NC(=O)CCl)ccc3[nH]2)cc1`, the IC50 in assay [1] is 2 µM; in assay [7] it was 1.93 µM. Moreover, the inhibition came to 42.7% in [5], 52.6% in assay [6], 7.3% in assay [8] and 33.1% in [10]. For the same compound, the figures for the Activity in [9] and in [12] were 16.6% and 28.6%, respectively. The inhibition result in assay [11] was “inactive”.

In [1], `COc1cc2c(c(OC)c1OC)-c1ccc(OC)c(=O)cc1[C@@H](NC(C)=O)CC2` [COLCHICINE] gave a half-maximal inhibitory concentration (IC50) of 0.05 µM.

As for `Cc1ccc(-c2nc3cc(NC(=O)CCN4CCCCC4)ccc3[nH]2)cc1`, the midpoint of inhibition in assay [1], the IC50, lay at 11.9 µM.

In assay [1], `Cc1ccc(-c2nc3cc(NC(=O)CN4CCOCC4)ccc3[nH]2)cc1` returned a half-maximal inhibitory concentration (IC50) of more than 50 µM.

`CCN1CCN(CCC(=O)Nc2ccc3[nH]c(-c4ccc(C)cc4)nc3c2)CC1` displayed an IC50 in [1] of 14.6 µM.

Consider `Cc1cnc(C(=O)Nc2ccc3[nH]c(-c4ccc(F)cc4)nc3c2)cn1`, for which the inhibition was determined as 0.5% in assay [2], 5.43% in assay [3] and 0.5% in [4].

With `Cc1ccc(-c2nc3cc(NC(=O)CN4CCN(C)CC4)ccc3[nH]2)cc1`, the IC50 in assay [1] is more than 50 µM.

`CCN1CCN(CCC(=O)Nc2ccc3[nH]c(-c4cccn4C)nc3c2)CC1`: in assay [1], the IC50 is more than 50 µM.

The compound `CCN1CCN(CC(=O)Nc2ccc3[nH]c(-c4cccn4C)nc3c2)CC1` yielded an IC50 in [1] of more than 50 µM.

What is called IC50 is the midpoint of a concentration-inhibition curve. Low values mean greater potency in that assay, high ones weaker potency in that assay. The term inhibition denotes the percentage by which the read-out fell short of the control.
